Measurements as given in US12162848B2, “Inhibitors of protein tyrosine phosphatase, compositions, and methods of use” (BRISTOL-MYERS SQUIBB COMPANY, priority 2022, dated 2024).

Key:
[1] = tested on: phosphorylated STAT1 protein levels in B16-F10 cells; experiment: Phospho-STAT1 (Tyr701) HTRF assay in IFN-gamma treated B16-F10 cells; format: cell-based; conditions: mouse IFN-gamma 100 ng/mL, 1 hour, read-out: pSTAT1 HTRF B16 EC50
Procedure: B16-F10 cells (ATCC, Manassas, VA, #CRL-6475) were cultured in DMEM growth medium (ThermoFisher Scientific, Waltham, MA, #11995-040) supplemented with 10% heat inactivated FBS (ThermoFisher Scientific, #16140-071) and 1% pen/strep (ThermoFisher Scientific, #15140-122). The cells were seeded into a white opaque 384-well tissue culture treated microplate (PerkinElmer, Waltham, MA, #6007688) at a density of 10,000 cells/well in 20 uL total volume and incubated overnight at 37 C and 5% CO2. 30 nL of compounds dissolved in DMSO were then transferred from a source plate into target wells with the Echo650 acoustic liquid handler (Beckman Coulter, Indianapolis, IN). Negative control wells received 30 nL of DMSO only (0.15% final concentration). Plates were returned to the incubator for 1 hour and then cells treated with either 5 uL of growth medium or 5 uL of growth medium containing 500 ng/mL of recombinant mouse IFN-gamma protein (R&D Systems, Minneapolis, MN, #485-MI/CF, 100 ng/mL final concentration) using the Assist automated pipetting platform (INTEGRA Biosciences, Hudson, NH). Plates were incubated at 37 C for 1 hour and assayed for phosphorylated STAT1 protein levels with the phospho-STAT1 (Tyr701) HTRF kit (Cisbio, Bedford, MA, #63ADK026PEH) according to manufacturer's instructions.

B16-F10 cells = experiment: Cell proliferation assay (CellTiter-Glo) in IFN-gamma treated B16-F10 cells; format: cell-based; conditions: 120 h, mouse IFN-gamma 10 ng/mL, read-out: PTPN2 Prolif 5d B16F10 EC50
Procedure: B16-F10 cells (ATCC, Manassas, VA, #CRL-6475) were cultured in DMEM growth medium (ThermoFisher Scientific, Waltham, MA, #11995-040) supplemented with 10% heat inactivated FBS (ThermoFisher Scientific, #16140-071) and 1% pen/strep (ThermoFisher Scientific, #15140-122). The cells were seeded into two white opaque 384-well tissue culture treated microplates (PerkinElmer, Waltham, MA, #6007688) at a density of 100 cells/well in 20 uL total volume and incubated overnight at 37 C and 5% CO2. 30 nL of compounds dissolved in DMSO were then transferred from a source plate into target wells with the Echo650 acoustic liquid handler (Beckman Coulter, Indianapolis, IN). Negative control wells received 30 nL of DMSO only (0.15% final concentration). Plates were returned to the incubator for 1 hour and then cells treated with either 5 uL of growth medium or 5 uL of growth medium containing 50 ng/mL of recombinant mouse IFN-gamma protein (R&D Systems, Minneapolis, MN, #485-MI/CF, 10 ng/mL final concentration) using the Assist automated pipetting platform (INTEGRA Biosciences, Hudson, NH). Plates were incubated at 37 C for 4 days and cell proliferation assayed with the CellTiter-Glo reagent (Promega, Madison, WI, #G7573, 25 uL per well). […] Off-target compound mediated cytotoxicity was identified by checking for growth inhibition in the absence of IFNg.

PTPN2 enzyme = target: T1, PTPN2 enzyme (Homo sapiens, UniProt P17706); experiment: PhosphoSens PTPN2 biochemical assay; conditions: substrate AQT0264 20 μM, room temperature; read-out: PTPN2 BCHEM IC50
T1 sequence (P17706 1-415): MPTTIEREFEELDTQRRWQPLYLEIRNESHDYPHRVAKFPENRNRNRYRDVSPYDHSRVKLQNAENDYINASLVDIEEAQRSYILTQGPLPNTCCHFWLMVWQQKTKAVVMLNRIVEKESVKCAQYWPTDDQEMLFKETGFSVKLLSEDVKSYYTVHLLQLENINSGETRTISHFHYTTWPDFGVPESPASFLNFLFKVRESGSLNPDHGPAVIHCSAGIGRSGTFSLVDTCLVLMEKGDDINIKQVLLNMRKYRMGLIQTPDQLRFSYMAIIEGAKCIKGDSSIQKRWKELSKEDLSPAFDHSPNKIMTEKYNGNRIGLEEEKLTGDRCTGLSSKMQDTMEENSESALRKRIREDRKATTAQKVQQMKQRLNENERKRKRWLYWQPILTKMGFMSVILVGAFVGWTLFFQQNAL
Procedure: A PhosphoSens® kinase assay was performed as described by the vendor (AssayQuant Technologies, Marlborough, MA). Briefly, 1000×solutions of compounds were prepared in DMSO via serial dilution of the 10 mM DMSO stocks using 3-fold intervals in a 384-well reagent plate. 50 nL of the compound dilution series was then added to the corresponding wells of a 384-well assay plate. […] of 1.25×substrate (AQT0264) in 1× assay buffer (50 mM HEPES pH 7.5, 500 μM EGTA, […] MgCl2, 0.01% Brij-35, 1% Glycerol, 1 mM DTT, and 0.2 mg/mL BSA) was transferred to each well of the assay plate to achieve a final substrate concentration of 20 μM. Finally, […] of 5×PTPN2 enzyme stock was added to each well of the assay plate for a final enzyme concentration of […]. Reaction progress curves were collected by sampling fluorescence intensity at the excitation wavelength 360 nm (λex360) and emission wavelength 480 nm (λem480) every 71 seconds for one hour using a Synergy H4 plate reader (BioTek Instruments/Agilent Technologies, Winooski, VT) at room temperature.

EC50 [1] [µM] | EC50 (B16-F10 cells) [µM] | IC50 (PTPN2 enzyme) [µM] | SMILES
≥ 15 | ≥ 15 | 2.21 | O=C1CN(c2c(O)cc(-c3cccc(Oc4ccccc4)c3)cc2F)S(=O)(=O)N1 [EXAMPLE 14, 5-[2-fluoro-6-hydroxy-4-(3-phenoxyphenyl)phenyl]-1,1-dioxo-1,2,5-thiadiazolidin-3-one]
≥ 15 | ≥ 15 | 0.457 | CN1CCN(c2ccc(-c3cc(O)c(N4CC(=O)NS4(=O)=O)c(F)c3)cn2)CC1 [EXAMPLE 27, 5-[2-fluoro-6-hydroxy-4-[6-(4-methylpiperazin-1-yl)-3-pyridyl]phenyl]-1,1-dioxo-1,2,5-thiadiazolidin-3-one]
≥ 15 | ≥ 15 | 1.56 | O=C1CN(c2c(O)cc(CNC3CCOCC3)cc2F)S(=O)(=O)N1 [EXAMPLE 35, 5-[2-fluoro-6-hydroxy-4-[(tetrahydropyran-4-ylamino)methyl]phenyl]-1,1-dioxo-1,2,5-thiadiazolidin-3-one]
≥ 15 | ≥ 15 | 0.745 | NC1CCN(c2cc(O)c(N3CC(=O)NS3(=O)=O)c(F)c2)CC1 [EXAMPLE 84, 5-(4-(4-aminopiperidin-1-yl)-2-fluoro-6-hydroxyphenyl)-1,2,5-thiadiazolidin-3-one 1,1-dioxide]
≥ 15 | ≥ 15 | 0.142 | COc1ccc(-c2cc(O)c(N3CC(=O)NS3(=O)=O)c(F)c2)cn1 [EXAMPLE 23, 5-[2-fluoro-6-hydroxy-4-(6-methoxy-3-pyridyl)phenyl]-1,1-dioxo-1,2,5-thiadiazolidin-3-one]
2.18 | 3.11 | 0.01 | O=C1CN(c2c(O)cc(-c3ccc(O)nc3)cc2F)S(=O)(=O)N1 [EXAMPLE 26, 5-[2-fluoro-6-hydroxy-4-(6-hydroxy-3-pyridyl)phenyl]-1,1-dioxo-1,2,5-thiadiazolidin-3-one]
7.8 | 9.84 | 0.01 | O=C1CN(c2c(O)cc(CN[C@H]3CCCN(S(=O)(=O)C4CC4)C3)cc2F)S(=O)(=O)N1 [EXAMPLE 73, 5-[4-[[[(3S)-1-cyclopropylsulfonyl-3-piperidyl]amino]methyl]-2-fluoro-6-hydroxy-phenyl]-1,1-dioxo-1,2,5-thiadiazolidin-3-one]
4.98 | 2.56 | 0.121 | O=C1CN(c2c(O)cc(CN[C@@H]3CCCNC3)cc2F)S(=O)(=O)N1 [EXAMPLE 61, (R)-5-(2-fluoro-6-hydroxy-4-((piperidin-3-ylamino)methyl)phenyl)-1,2,5-thiadiazolidin-3-one 1,1-dioxide]
≥ 15 | ≥ 15 | 0.153 | CC(C)CCN1CCC[C@H](NCc2cc(O)c(N3CC(=O)NS3(=O)=O)c(F)c2)C1 [EXAMPLE 63, 5-[2-fluoro-6-hydroxy-4-[[[(3S)-1-isopentyl-3-piperidyl]amino]methyl]phenyl]-1,1-dioxo-1,2,5-thiadiazolidin-3-one]
≥ 15 | ≥ 15 | 0.568 | O=C1CN(c2c(O)cc(-c3ccccn3)cc2F)S(=O)(=O)N1 [EXAMPLE 7, 5-(2-fluoro-6-hydroxy-4-(pyridin-2-yl)phenyl)-1,2,5-thiadiazolidin-3-one 1,1-dioxide]
≥ 15 | ≥ 15 | 0.896 | CC(C)CCN1CCN(c2cc(O)c(N3CC(=O)NS3(=O)=O)c(F)c2)CC1 [EXAMPLE 83, 5-(2-fluoro-6-hydroxy-4-(4-isopentylpiperazin-1-yl)phenyl)-1,2,5-thiadiazolidin-3-one 1,1-dioxide]
1.28 | 0.882 | 0.119 | O=C1CN(c2c(O)cc(C3CCCNC3)cc2F)S(=O)(=O)N1 (stereo not drawn) [EXAMPLE 1, 5-(2-fluoro-6-hydroxy-4-(piperidin-3-yl)phenyl)-1,2,5-thiadiazolidin-3-one 1,1-dioxide]
≥ 15 | ≥ 15 |  | CN(C)[C@H]1CC[C@H](NC(=O)c2cc(O)c(N3CC(=O)NS3(=O)=O)c(F)c2)CC1 [EXAMPLE 96, N-((1r,4r)-4-(dimethylamino)cyclohexyl)-4-(1,1-dioxido-4-oxo-1,2,5-thiadiazolidin-2-yl)-3-fluoro-5-hydroxybenzamide]
≥ 15 | ≥ 15 |  | CC1(C)CCC(NCc2ccc(O)c(N3CC(=O)NS3(=O)=O)c2F)CC1 [EXAMPLE 97, 5-(3-(((4,4-dimethylcyclohexyl)amino)methyl)-2-fluoro-6-hydroxyphenyl)-1,2,5-thiadiazolidin-3-one 1,1-dioxide]
≥ 15 | ≥ 15 |  | O=C1CN(c2c(O)cc(C(=O)NC3CCNCC3)cc2F)S(=O)(=O)N1 [EXAMPLE 92, 4-(1,1-dioxido-4-oxo-1,2,5-thiadiazolidin-2-yl)-3-fluoro-5-hydroxy-N-(piperidin-4-yl)benzamide]
≥ 15 | ≥ 15 |  | O=C1CN(c2c(O)ccc(CN3CCOCC3)c2F)S(=O)(=O)N1 [EXAMPLE 99, 5-(2-fluoro-6-hydroxy-3-(morpholinomethyl)phenyl)-1,2,5-thiadiazolidin-3-one 1,1-dioxide]
≥ 15 | ≥ 15 |  | O=C1CN(c2c(O)ccc(CNC3CCCCC3)c2F)S(=O)(=O)N1 [EXAMPLE 100, 5-(3-((cyclohexylamino)methyl)-2-fluoro-6-hydroxyphenyl)-1,2,5-thiadiazolidin-3-one 1,1-dioxide]
≥ 15 | ≥ 15 |  | N#Cc1ccc(Cl)c(NCc2cc(O)c(N3CC(=O)NS3(=O)=O)c(F)c2)c1 [EXAMPLE 81, 4-chloro-3-[[3-fluoro-5-hydroxy-4-(1,1,4-trioxo-1,2,5-thiadiazolidin-2-yl)phenyl]methylamino]benzonitrile]
≥ 15 | ≥ 15 |  | O=C1CN(c2c(O)cc(C(=O)N[C@H]3CCCNC3)cc2F)S(=O)(=O)N1 [EXAMPLE 93, (S)-4-(1,1-dioxido-4-oxo-1,2,5-thiadiazolidin-2-yl)-3-fluoro-5-hydroxy-N-(piperidin-3-yl)benzamide]
≥ 15 | ≥ 15 |  | CN1CCN(Cc2ccc(O)c(N3CC(=O)NS3(=O)=O)c2F)CC1 [EXAMPLE 103, 5-(2-fluoro-6-hydroxy-3-((4-methylpiperazin-1-yl)methyl)phenyl)-1,2,5-thiadiazolidin-3-one 1,1-dioxide]
≥ 15 | ≥ 15 |  | CN(C)CCNC(=O)c1cc(O)c(N2CC(=O)NS2(=O)=O)c(F)c1 [EXAMPLE 91, N-(2-(dimethylamino)ethyl)-4-(1,1-dioxido-4-oxo-1,2,5-thiadiazolidin-2-yl)-3-fluoro-5-hydroxybenzamide]
